Laboratory results: ChEMBL document CHEMBL1201862, “PubChem BioAssay data set” (2004)
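Growth conditions: 96-well plates. Treatment: test compound, 48 hours, 5 concentrations. Analysis: linear interpolation between bracketing concentrations; unreached endpoints set to highest concentration. Here, GI50 denotes the concentration required for 50% inhibition of growth.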 Calls of active or inactive are those of the source. Cut-off read from the data, not from the text of the source: active = GI50 up to about 1.1 µM and inactive = higher.

Columns and labels:
Experiment in all cases: NCI anticancer screen, dose series, 48 h
EKVX = system: EKVX
HCT-15 = system: HCT-15
LOX IMVI = system: LOX IMVI
DU-145 = system: DU-145
OVCAR-4 = system: OVCAR-4
MDA-MB-231 = system: MDA-MB-231
MDA-MB-435 = system: MDA-MB-435
PC-3 = system: PC-3
COLO 205 = system: COLO 205
SK-MEL-28 = system: SK-MEL-28
RXF 393 = system: RXF 393
T47D = system: T47D
CCRF-CEM = system: CCRF-CEM
SF-295 = system: SF-295
Hs-578T = system: Hs-578T
UACC-62 = system: UACC-62
NCI-H23 = system: NCI-H23
BT-549 = system: BT-549
OVCAR-3 = system: OVCAR-3
MOLT-4 = system: MOLT-4

Compound | GI50 (EKVX) | GI50 (HCT-15) [µM] | GI50 (LOX IMVI) | GI50 (DU-145) | GI50 (OVCAR-4) | GI50 (MDA-MB-231) | GI50 (MDA-MB-435) | GI50 (PC-3) | GI50 (COLO 205) | GI50 (SK-MEL-28) | GI50 (RXF 393) | GI50 (T47D) | GI50 (CCRF-CEM) | GI50 (SF-295) | GI50 (Hs-578T) | GI50 (UACC-62) | GI50 (NCI-H23) | GI50 (BT-549) | GI50 (OVCAR-3) | GI50 (MOLT-4)
O=C(NC1CCCCC1)c1cc2ccccc2cc1O | 34.1 µM (inactive) | 26.4 | 38.8 µM (inactive) | 43.2 µM (inactive) | 20.3 µM (inactive) | 61 µM (inactive) | 29.2 µM (inactive) | 28.8 µM (inactive) | 53.1 µM (inactive) | 49.3 µM (inactive) | 30.5 µM (inactive) | 42.6 µM (inactive) | 38.9 µM (inactive) | 29.9 µM (inactive) | 36.2 µM (inactive) | 27 µM (inactive) |  |  |  | 
c1ccc2c(c1)nnn2CN1CCOCC1 | > 100 µM (inactive) | > 100 | 36.6 µM (inactive) |  | > 100 µM (inactive) | > 100 µM (inactive) | > 100 µM (inactive) | > 100 µM (inactive) |  | > 100 µM (inactive) | 48.5 µM (inactive) | > 100 µM (inactive) |  | > 100 µM (inactive) | 19.2 µM (inactive) | 58.3 µM (inactive) | > 100 µM (inactive) | > 100 µM (inactive) | 28.9 µM (inactive) | 35.6 µM (inactive)
COC(C/C=C\C=C\CC/C=C/CC(C)/C=C/C(=C\C(=O)O)CC(=O)O)/C(C)=C\C=C(/C)C(=O)O (stereo not drawn) | 28.4 µM (inactive) | > 100 |  | > 100 µM (inactive) | > 100 µM (inactive) | > 100 µM (inactive) | > 100 µM (inactive) | > 100 µM (inactive) | > 100 µM (inactive) | > 100 µM (inactive) |  |  | > 100 µM (inactive) | > 100 µM (inactive) | 61.7 µM (inactive) | > 100 µM (inactive) | > 100 µM (inactive) | > 100 µM (inactive) | > 100 µM (inactive) | > 100 µM (inactive)
O=C(Nn1c(-c2ccccc2)nc2ccccc2c1=O)c1cccc([N+](=O)[O-])c1 | 57.9 µM (inactive) | 55.7 | > 100 µM (inactive) | > 100 µM (inactive) | 86.1 µM (inactive) |  | > 100 µM (inactive) | 43.1 µM (inactive) | 54.3 µM (inactive) | 79.6 µM (inactive) | > 100 µM (inactive) | < 0.01 µM (active) | 52.5 µM (inactive) |  | 95.3 µM (inactive) | 29.2 µM (inactive) | 57.1 µM (inactive) | 32.3 µM (inactive) | > 100 µM (inactive) | 39.9 µM (inactive)
CC[N+]1(C)CCC(O)(c2ccc(Cl)cc2)C(C(=O)c2ccc(Cl)cc2)C1 (stereo not drawn) | > 10 µM (inactive) | 22 | 5.58 µM (inactive) | 18.7 µM (inactive) | 29.3 µM (inactive) | 14.9 µM (inactive) | 19.8 µM (inactive) | 17.5 µM (inactive) | 4.89 µM (inactive) | 16 µM (inactive) | 14.4 µM (inactive) | 2.79 µM (inactive) | 2.74 µM (inactive) | > 10 µM (inactive) | 12.5 µM (inactive) | 14.7 µM (inactive) | 17.4 µM (inactive) |  | 20.5 µM (inactive) | 13.7 µM (inactive)
CC1(C)CC(=O)C2=C(C1)NC(=S)C(C#N)C2c1ccccc1 (stereo not drawn) | > 100 µM (inactive) | > 100 | > 100 µM (inactive) | > 100 µM (inactive) | > 100 µM (inactive) | > 100 µM (inactive) | > 100 µM (inactive) | > 100 µM (inactive) | > 100 µM (inactive) | > 100 µM (inactive) | > 100 µM (inactive) |  | > 100 µM (inactive) | > 100 µM (inactive) | > 100 µM (inactive) | > 100 µM (inactive) | > 100 µM (inactive) | > 100 µM (inactive) | > 100 µM (inactive) | 
O=C(O)c1nc2ccccc2nc1Nc1ccc(Cl)c(Cl)c1 | 33.1 µM (inactive) | 13.1 | 28.8 µM (inactive) | 36.4 µM (inactive) |  | 31.3 µM (inactive) | 28.4 µM (inactive) | 32.6 µM (inactive) | 23.5 µM (inactive) | 13 µM (inactive) | 25.4 µM (inactive) | 17.7 µM (inactive) | 17.8 µM (inactive) | 17.3 µM (inactive) |  |  | 17.7 µM (inactive) | 16.1 µM (inactive) | 11.5 µM (inactive) | 15.8 µM (inactive)
COC(=O)CCc1c(Cc2ccc[nH]2)[nH]c(C(=O)OCc2ccccc2)c1C | 29.6 µM (inactive) | 16.1 | 19.7 µM (inactive) | 75.3 µM (inactive) | 11.9 µM (inactive) | 15.3 µM (inactive) | 18.3 µM (inactive) | 18.2 µM (inactive) | 17.5 µM (inactive) | 20.1 µM (inactive) | 20.8 µM (inactive) |  | 60.7 µM (inactive) | 24.6 µM (inactive) | 22.6 µM (inactive) | 26.4 µM (inactive) | 21.2 µM (inactive) |  | 15.8 µM (inactive) | 24.9 µM (inactive)
O=C(Cn1c2c(c3ccccc31)CCCC2)N1CCCCC1 | > 100 µM (inactive) | > 100 | > 100 µM (inactive) |  | > 100 µM (inactive) |  | > 100 µM (inactive) | > 100 µM (inactive) | > 100 µM (inactive) | > 100 µM (inactive) |  |  |  | > 100 µM (inactive) | > 100 µM (inactive) | > 100 µM (inactive) | > 100 µM (inactive) | > 100 µM (inactive) | > 100 µM (inactive) | > 100 µM (inactive)
CC(C)(C)OC(=O)N1Cc2cc(O)ccc2C[C@H]1C(=O)O | > 100 µM (inactive) | > 100 | > 100 µM (inactive) | > 100 µM (inactive) | > 100 µM (inactive) | > 100 µM (inactive) | > 100 µM (inactive) | > 100 µM (inactive) | > 100 µM (inactive) | > 100 µM (inactive) | > 100 µM (inactive) | > 100 µM (inactive) | > 100 µM (inactive) | > 100 µM (inactive) | > 100 µM (inactive) | > 100 µM (inactive) | > 100 µM (inactive) |  | > 100 µM (inactive) | > 100 µM (inactive)
Nc1ncnc2c1ncn2Cc1cccc(CCl)c1 | 19.3 µM (inactive) | 17.9 | 20.1 µM (inactive) | 13.8 µM (inactive) | 20.3 µM (inactive) | 16.6 µM (inactive) | 19.1 µM (inactive) | 14.7 µM (inactive) |  | 19.8 µM (inactive) | 3.88 µM (inactive) |  |  | 15.9 µM (inactive) | 22.8 µM (inactive) | 12.8 µM (inactive) | 12.6 µM (inactive) | 12.8 µM (inactive) | 14.1 µM (inactive) | 15.2 µM (inactive)
COc1ccc2nc3ccc(OC)cc3c(S(=O)(=O)Cc3ccc([N+](=O)[O-])cc3)c2c1 | > 100 µM (inactive) | > 100 | > 100 µM (inactive) | > 100 µM (inactive) | > 100 µM (inactive) | 61.7 µM (inactive) | > 100 µM (inactive) | > 100 µM (inactive) | > 100 µM (inactive) | > 100 µM (inactive) | > 100 µM (inactive) | > 100 µM (inactive) | > 100 µM (inactive) | 61.5 µM (inactive) |  | > 100 µM (inactive) | > 100 µM (inactive) |  | > 100 µM (inactive) | > 100 µM (inactive)
CC(CO)CCNc1ncnc2c1ncn2CCC#N (stereo not drawn) | > 100 µM (inactive) |  | > 100 µM (inactive) | > 100 µM (inactive) | > 100 µM (inactive) | > 100 µM (inactive) | > 100 µM (inactive) | > 100 µM (inactive) | > 100 µM (inactive) | > 100 µM (inactive) | > 100 µM (inactive) | > 100 µM (inactive) | > 100 µM (inactive) | > 100 µM (inactive) | > 100 µM (inactive) | > 100 µM (inactive) | > 100 µM (inactive) |  | > 100 µM (inactive) | > 100 µM (inactive)
COC(=O)CCC(=O)c1ccc2c(c1)CC1(C2)Cc2ccc3c(c2C1)CCCC3=O (stereo not drawn) | 56.8 µM (inactive) | 8.15 | 20 µM (inactive) | 33.7 µM (inactive) | 24.1 µM (inactive) | > 73.5 µM (inactive) | 3.73 µM (inactive) | 24.3 µM (inactive) | 21.5 µM (inactive) | 25.5 µM (inactive) | > 53 µM (inactive) | 34.8 µM (inactive) | 1.78 µM (inactive) | 26 µM (inactive) | 56.1 µM (inactive) | > 26.1 µM (inactive) | 31 µM (inactive) |  | 10.1 µM (inactive) | 0.489 µM (active)
CC(=O)O[C@H]1C(=O)[C@@]2(C)[C@H]([C@H](OC(=O)c3ccccc3)[C@]3(O)C[C@H](OC(=O)[C@H](O)[C@@H](NC(=O)c4ccco4)c4ccccc4)C(C)=C1C3(C)C)[C@]1(OC(C)=O)CO[C@@H]1C[C@@H]2O | 0.0112 µM (active) | 0.249 | < 0.00125 µM (active) | 0.00205 µM (active) | > 10.7 µM (inactive) | 0.013 µM (active) | < 0.00125 µM (active) | < 0.00125 µM (active) | < 0.00125 µM (active) | > 12.5 µM (inactive) | 0.00407 µM (active) | < 0.00125 µM (active) | < 0.00125 µM (active) | 0.00624 µM (active) | < 0.00125 µM (active) | < 0.00125 µM (active) | 0.00136 µM (active) |  | < 0.00125 µM (active) | 0.00286 µM (active)
O=C(O)c1ccccn1 [2-PICOLINIC ACID] | > 100 µM (inactive) | > 100 |  |  | > 100 µM (inactive) | > 100 µM (inactive) | > 100 µM (inactive) | > 100 µM (inactive) | > 100 µM (inactive) | > 100 µM (inactive) | > 100 µM (inactive) | > 100 µM (inactive) | > 100 µM (inactive) | > 100 µM (inactive) | > 100 µM (inactive) | > 100 µM (inactive) | > 100 µM (inactive) | > 100 µM (inactive) | > 100 µM (inactive) | > 100 µM (inactive)
